Experiments:
Experiment in all cases: KINOMEscan competition binding
Details in all cases: compound 10.0 µM
ADCK4 (human) = ADCK4 (human) (UniProt Q96D53)
[1] = system: EGFR (human), P00533 [747-751 del / S ins]
RPS6KB1 (human) = RPS6KB1 (human) (UniProt P23443)
PI4KB (human) = PI4KB (human) (UniProt Q9UBF8)
TSSK1B (human) = TSSK1B (human) (UniProt Q9BXA7)
PIK3C2G (human) = PIK3C2G (human) (UniProt O75747)
CSNK1D (human) = CSNK1D (human) (UniProt P48730)
PTK2 (human) = PTK2 (human) (UniProt Q05397)
NTRK2 (human) = NTRK2 (human) (UniProt Q16620)
[2] = system: PIK3CA (human), P42336 [E545K]
TYRO3 (human) = TYRO3 (human) (UniProt Q06418)
RPS6KA2 KD2 (human) = RPS6KA2 KD2 (human) (UniProt Q15349)
PRKCD (human) = PRKCD (human) (UniProt Q05655)
CDK17 (human) = CDK17 (human) (UniProt Q00537)
RAF1 (human) = RAF1 (human) (UniProt P04049)
AKT3 (human) = AKT3 (human) (UniProt Q9Y243)
[3] = system: PIK3CA (human), P42336 [E542K]
PIK3C2B (human) = PIK3C2B (human) (UniProt O00750)
FLT1 (human) = FLT1 (human) (UniProt P17948)
NEK1 (human) = NEK1 (human) (UniProt Q96PY6)
CHEK1 (human) = CHEK1 (human) (UniProt O14757)
[4] = system: KIT (human), P10721 [D816V]
MAPK6 (human) = MAPK6 (human) (UniProt Q16659)
MAP3K2 (human) = MAP3K2 (human) (UniProt Q9Y2U5)
YSK4 (human) = YSK4 (human) (UniProt Q56UN5)
BMP2K (human) = BMP2K (human) (UniProt Q9NSY1)
MAPK1 (human) = MAPK1 (human) (UniProt P28482)
[5] = system: KIT (human), P10721 [V559D/T670I]
CPK1 (P.falciparum) = system: CPK1 (P.falciparum)
CRK2 (P.falciparum) = CRK2 (P.falciparum) (UniProt P61075)
CAMK1D (human) = CAMK1D (human) (UniProt Q8IU85)
PRKCI (human) = PRKCI (human) (UniProt P41743)
BTK (human) = BTK (human) (UniProt Q06187)
EPHA8 (human) = EPHA8 (human) (UniProt P29322)
ABL2 (human) = ABL2 (human) (UniProt P42684)
CDK5 (human) = CDK5 (human) (UniProt Q00535)
PDGFRB (human) = PDGFRB (human) (UniProt P09619)
CSNK2A1 (human) = CSNK2A1 (human) (UniProt P68400)
TRPM6 (human) = TRPM6 (human) (UniProt Q9BX84)
IRAK1 (human) = IRAK1 (human) (UniProt P51617)
[6] = system: MET (human), P08581 [M1250T]

Sequence of PTK2 (human) (Q05397 whole entry, looked up): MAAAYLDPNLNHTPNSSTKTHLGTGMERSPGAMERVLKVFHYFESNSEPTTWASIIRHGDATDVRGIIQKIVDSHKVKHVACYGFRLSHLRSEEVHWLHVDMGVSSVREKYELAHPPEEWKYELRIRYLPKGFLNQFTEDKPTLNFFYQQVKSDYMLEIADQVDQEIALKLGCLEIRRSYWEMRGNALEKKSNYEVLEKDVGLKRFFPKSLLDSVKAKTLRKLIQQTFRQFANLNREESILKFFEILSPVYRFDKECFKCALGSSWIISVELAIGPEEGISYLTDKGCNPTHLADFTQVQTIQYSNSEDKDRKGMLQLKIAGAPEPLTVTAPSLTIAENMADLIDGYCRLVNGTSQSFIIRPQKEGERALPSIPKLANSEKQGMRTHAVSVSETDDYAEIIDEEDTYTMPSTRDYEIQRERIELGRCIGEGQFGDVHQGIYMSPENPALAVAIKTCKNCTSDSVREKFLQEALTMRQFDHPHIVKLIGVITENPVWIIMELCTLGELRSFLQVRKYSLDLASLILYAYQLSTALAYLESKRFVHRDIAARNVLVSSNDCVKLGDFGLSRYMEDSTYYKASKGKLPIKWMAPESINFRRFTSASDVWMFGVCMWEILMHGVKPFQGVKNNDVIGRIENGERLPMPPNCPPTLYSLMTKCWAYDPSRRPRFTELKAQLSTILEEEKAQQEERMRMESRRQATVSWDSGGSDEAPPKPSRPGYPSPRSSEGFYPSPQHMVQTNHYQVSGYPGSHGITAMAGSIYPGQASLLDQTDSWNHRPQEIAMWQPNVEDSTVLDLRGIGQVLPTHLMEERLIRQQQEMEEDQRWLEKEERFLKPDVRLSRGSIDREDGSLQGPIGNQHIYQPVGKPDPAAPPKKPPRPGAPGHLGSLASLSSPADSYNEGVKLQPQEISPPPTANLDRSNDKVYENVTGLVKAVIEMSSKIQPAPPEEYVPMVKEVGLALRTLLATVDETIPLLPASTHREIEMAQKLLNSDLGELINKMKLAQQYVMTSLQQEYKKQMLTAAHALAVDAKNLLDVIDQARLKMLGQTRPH
Sequence of CAMK1D (human) (Q8IU85 whole entry, looked up): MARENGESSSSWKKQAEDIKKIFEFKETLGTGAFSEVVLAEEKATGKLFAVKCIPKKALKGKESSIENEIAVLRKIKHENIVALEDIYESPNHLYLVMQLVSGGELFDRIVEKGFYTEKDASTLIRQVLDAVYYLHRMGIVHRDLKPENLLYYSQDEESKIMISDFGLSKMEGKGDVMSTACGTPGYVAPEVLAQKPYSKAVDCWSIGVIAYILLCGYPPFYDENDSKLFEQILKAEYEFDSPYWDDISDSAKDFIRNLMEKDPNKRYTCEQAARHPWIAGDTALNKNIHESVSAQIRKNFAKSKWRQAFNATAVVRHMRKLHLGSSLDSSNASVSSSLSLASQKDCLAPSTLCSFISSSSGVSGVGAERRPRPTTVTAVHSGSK
Sequence of MAP3K2 (human) (Q9Y2U5 whole entry, looked up): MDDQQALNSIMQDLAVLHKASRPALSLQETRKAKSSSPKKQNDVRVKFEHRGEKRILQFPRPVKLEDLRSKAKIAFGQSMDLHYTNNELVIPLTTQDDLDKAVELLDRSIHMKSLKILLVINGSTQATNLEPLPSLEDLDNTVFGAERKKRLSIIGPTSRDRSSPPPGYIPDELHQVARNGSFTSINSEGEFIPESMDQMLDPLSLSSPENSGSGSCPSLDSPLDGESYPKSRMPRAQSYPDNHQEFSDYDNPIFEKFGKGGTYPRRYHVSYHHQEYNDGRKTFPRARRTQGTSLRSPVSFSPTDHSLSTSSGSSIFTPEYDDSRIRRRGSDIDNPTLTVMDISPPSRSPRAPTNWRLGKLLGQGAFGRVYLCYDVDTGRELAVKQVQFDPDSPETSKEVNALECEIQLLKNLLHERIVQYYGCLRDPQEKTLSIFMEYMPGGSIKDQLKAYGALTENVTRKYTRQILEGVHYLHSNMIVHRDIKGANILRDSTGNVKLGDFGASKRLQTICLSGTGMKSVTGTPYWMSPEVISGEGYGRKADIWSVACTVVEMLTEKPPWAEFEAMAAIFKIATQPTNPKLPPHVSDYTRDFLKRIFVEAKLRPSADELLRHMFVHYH
Sequence of BMP2K (human) (Q9NSY1 whole entry, looked up): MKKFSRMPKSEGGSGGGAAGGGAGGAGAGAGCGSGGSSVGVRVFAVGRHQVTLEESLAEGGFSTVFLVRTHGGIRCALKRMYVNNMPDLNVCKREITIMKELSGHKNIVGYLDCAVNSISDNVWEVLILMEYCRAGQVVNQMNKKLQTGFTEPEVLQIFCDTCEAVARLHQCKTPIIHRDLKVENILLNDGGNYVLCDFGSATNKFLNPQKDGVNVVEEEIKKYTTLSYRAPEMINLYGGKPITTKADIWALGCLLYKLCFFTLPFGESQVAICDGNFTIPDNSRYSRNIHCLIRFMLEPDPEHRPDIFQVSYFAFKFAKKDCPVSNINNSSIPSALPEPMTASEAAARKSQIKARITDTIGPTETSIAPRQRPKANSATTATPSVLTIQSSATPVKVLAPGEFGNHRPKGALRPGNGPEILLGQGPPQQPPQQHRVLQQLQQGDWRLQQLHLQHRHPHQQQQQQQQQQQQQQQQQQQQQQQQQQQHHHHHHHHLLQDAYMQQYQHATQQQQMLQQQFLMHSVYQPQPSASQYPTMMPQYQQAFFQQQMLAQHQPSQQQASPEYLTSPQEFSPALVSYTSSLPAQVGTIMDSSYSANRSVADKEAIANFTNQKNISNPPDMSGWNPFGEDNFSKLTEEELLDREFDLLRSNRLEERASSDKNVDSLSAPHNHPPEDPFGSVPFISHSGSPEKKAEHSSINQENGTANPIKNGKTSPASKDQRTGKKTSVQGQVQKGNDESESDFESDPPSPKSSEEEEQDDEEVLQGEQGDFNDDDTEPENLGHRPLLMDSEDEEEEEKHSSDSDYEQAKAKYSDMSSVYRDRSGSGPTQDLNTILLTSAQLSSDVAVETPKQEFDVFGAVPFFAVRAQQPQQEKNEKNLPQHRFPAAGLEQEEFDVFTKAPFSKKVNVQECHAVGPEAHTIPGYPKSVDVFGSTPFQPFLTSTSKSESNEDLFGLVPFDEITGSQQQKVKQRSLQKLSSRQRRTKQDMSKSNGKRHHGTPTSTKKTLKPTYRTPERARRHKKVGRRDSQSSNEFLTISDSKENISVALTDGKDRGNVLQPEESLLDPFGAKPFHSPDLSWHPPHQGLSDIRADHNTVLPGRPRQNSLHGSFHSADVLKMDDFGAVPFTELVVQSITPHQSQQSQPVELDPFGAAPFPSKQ
Sequence of ADCK4 (human) (Q96D53 whole entry, looked up): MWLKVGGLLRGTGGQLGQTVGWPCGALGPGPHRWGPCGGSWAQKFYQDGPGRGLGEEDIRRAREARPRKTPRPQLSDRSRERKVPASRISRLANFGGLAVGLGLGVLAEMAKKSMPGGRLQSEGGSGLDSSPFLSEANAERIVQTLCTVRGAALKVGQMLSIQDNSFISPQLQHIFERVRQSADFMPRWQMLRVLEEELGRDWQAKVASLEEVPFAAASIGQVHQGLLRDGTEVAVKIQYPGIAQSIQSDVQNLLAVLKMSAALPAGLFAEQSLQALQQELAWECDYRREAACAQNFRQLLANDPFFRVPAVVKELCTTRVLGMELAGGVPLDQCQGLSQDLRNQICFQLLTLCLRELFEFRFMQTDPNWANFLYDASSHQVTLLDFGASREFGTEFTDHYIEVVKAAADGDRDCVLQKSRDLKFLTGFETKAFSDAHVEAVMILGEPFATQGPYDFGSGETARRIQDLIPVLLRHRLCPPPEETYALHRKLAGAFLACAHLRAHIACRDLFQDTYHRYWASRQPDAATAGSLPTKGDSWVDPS
Sequence of FLT1 (human) (P17948 whole entry, looked up): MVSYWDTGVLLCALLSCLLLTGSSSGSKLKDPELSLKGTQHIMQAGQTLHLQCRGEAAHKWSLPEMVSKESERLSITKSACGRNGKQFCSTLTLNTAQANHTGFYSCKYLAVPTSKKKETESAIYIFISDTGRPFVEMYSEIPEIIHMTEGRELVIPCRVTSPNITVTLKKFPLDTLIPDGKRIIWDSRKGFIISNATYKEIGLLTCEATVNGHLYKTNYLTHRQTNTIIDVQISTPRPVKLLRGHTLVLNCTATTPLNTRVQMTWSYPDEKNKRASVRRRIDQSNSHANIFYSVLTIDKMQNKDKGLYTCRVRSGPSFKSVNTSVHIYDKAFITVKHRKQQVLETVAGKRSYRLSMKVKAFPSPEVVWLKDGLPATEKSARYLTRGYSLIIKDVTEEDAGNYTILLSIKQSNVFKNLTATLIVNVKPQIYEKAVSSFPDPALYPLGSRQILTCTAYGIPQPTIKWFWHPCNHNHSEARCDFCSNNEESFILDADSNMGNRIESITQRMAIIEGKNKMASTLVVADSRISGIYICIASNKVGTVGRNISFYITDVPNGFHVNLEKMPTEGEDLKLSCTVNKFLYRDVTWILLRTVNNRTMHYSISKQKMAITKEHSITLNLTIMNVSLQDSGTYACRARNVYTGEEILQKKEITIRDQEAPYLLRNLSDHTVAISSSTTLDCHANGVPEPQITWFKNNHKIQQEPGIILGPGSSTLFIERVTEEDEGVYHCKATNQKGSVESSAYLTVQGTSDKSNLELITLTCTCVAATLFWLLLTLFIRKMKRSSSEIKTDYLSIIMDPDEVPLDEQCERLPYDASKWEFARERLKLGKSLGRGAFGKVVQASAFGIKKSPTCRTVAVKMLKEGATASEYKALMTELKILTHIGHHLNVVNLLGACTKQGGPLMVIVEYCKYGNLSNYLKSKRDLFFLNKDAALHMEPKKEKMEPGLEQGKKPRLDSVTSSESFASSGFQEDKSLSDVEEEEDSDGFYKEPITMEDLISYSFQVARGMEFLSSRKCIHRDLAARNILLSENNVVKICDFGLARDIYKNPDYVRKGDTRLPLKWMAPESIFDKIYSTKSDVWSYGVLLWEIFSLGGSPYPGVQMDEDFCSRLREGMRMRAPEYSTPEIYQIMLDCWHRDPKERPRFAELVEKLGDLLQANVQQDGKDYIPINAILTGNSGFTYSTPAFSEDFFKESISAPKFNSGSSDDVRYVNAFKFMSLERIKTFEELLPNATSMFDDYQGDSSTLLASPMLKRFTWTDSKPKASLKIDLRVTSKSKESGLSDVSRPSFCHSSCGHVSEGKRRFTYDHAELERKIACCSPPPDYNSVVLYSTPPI

COC(=O)Nc1ccc(-c2nc(N3CCOCC3)c3cnn(C4CCN(C(=O)OC)CC4)c3n2)cc1
kinase still bound, per cent of control (ADCK4 (human)): 73%
kinase still bound, per cent of control [1]: 100%
kinase still bound, per cent of control (RPS6KB1 (human)): 86%
kinase still bound, per cent of control (PI4KB (human)): 100%
kinase still bound, per cent of control (TSSK1B (human)): 100%
kinase still bound, per cent of control (PIK3C2G (human)): 24%
per cent of control (CSNK1D (human)): 100%
kinase still bound, per cent of control (PTK2 (human)): 94%
kinase still bound, per cent of control (NTRK2 (human)): 100%
kinase still bound, per cent of control [2]: 4.9%
kinase still bound, per cent of control (TYRO3 (human)): 100%
kinase still bound, per cent of control (RPS6KA2 KD2 (human)): 100%
kinase still bound, per cent of control (PRKCD (human)): 99%
per cent of control (CDK17 (human)): 100%
kinase still bound, per cent of control (RAF1 (human)): 91%
kinase still bound, per cent of control (AKT3 (human)): 100%
kinase still bound, per cent of control [3]: 5.2%
kinase still bound, per cent of control (PIK3C2B (human)): 100%
kinase still bound, per cent of control (FLT1 (human)): 100%
kinase still bound, per cent of control (NEK1 (human)): 77%
kinase still bound, per cent of control (CHEK1 (human)): 96%
kinase still bound, per cent of control [4]: 100%
kinase still bound, per cent of control (MAPK6 (human)): 100%
kinase still bound, per cent of control (MAP3K2 (human)): 89%
kinase still bound, per cent of control (YSK4 (human)): 75%
kinase still bound, per cent of control (BMP2K (human)): 99%
kinase still bound, per cent of control (MAPK1 (human)): 100%
kinase still bound, per cent of control [5]: 100%
kinase still bound, per cent of control (CPK1 (P.falciparum)): 100%
kinase still bound, per cent of control (CRK2 (P.falciparum)): 95%
kinase still bound, per cent of control (CAMK1D (human)): 85%
kinase still bound, per cent of control (PRKCI (human)): 100%
kinase still bound, per cent of control (BTK (human)): 99%
kinase still bound, per cent of control (EPHA8 (human)): 97%
kinase still bound, per cent of control (ABL2 (human)): 100%
per cent of control (CDK5 (human)): 100%
kinase still bound, per cent of control (PDGFRB (human)): 100%
kinase still bound, per cent of control (CSNK2A1 (human)): 62%
kinase still bound, per cent of control (TRPM6 (human)): 100%
kinase still bound, per cent of control (IRAK1 (human)): 100%

CC(C)n1nc(-c2cc3cc(O)ccc3[nH]2)c2c(N)ncnc21
kinase still bound, per cent of control (ADCK4 (human)): 13%
kinase still bound, per cent of control (RPS6KB1 (human)): 57%
kinase still bound, per cent of control (PI4KB (human)): 2.4%
kinase still bound, per cent of control (TSSK1B (human)): 83%
kinase still bound, per cent of control (PIK3C2G (human)): 3.4%
per cent of control (CSNK1D (human)): 2.4%
kinase still bound, per cent of control (PTK2 (human)): 100%
kinase still bound, per cent of control (TYRO3 (human)): 77%
kinase still bound, per cent of control [6]: 100%
kinase still bound, per cent of control (RPS6KA2 KD2 (human)): 62%
kinase still bound, per cent of control (PRKCD (human)): 39%
per cent of control (CDK17 (human)): 100%
kinase still bound, per cent of control (RAF1 (human)): 41%
kinase still bound, per cent of control (AKT3 (human)): 29%
kinase still bound, per cent of control (PIK3C2B (human)): 5.6%
kinase still bound, per cent of control (FLT1 (human)): 25%
kinase still bound, per cent of control (NEK1 (human)): 61%
kinase still bound, per cent of control (CHEK1 (human)): 66%
kinase still bound, per cent of control [4]: 2.5%
kinase still bound, per cent of control (MAPK6 (human)): 52%
kinase still bound, per cent of control (MAP3K2 (human)): 4.8%
kinase still bound, per cent of control (YSK4 (human)): 0%
kinase still bound, per cent of control (BMP2K (human)): 33%
kinase still bound, per cent of control (MAPK1 (human)): 100%
kinase still bound, per cent of control [5]: 30%
kinase still bound, per cent of control (CRK2 (P.falciparum)): 93%
kinase still bound, per cent of control (PRKCI (human)): 52%
kinase still bound, per cent of control (BTK (human)): 22%
kinase still bound, per cent of control (EPHA8 (human)): 1.2%
kinase still bound, per cent of control (ABL2 (human)): 28%
per cent of control (CDK5 (human)): 100%
kinase still bound, per cent of control (PDGFRB (human)): 0%
kinase still bound, per cent of control (CSNK2A1 (human)): 16%
kinase still bound, per cent of control (TRPM6 (human)): 70%
kinase still bound, per cent of control (IRAK1 (human)): 25%

COc1ccc(-c2ccc3c(N4CCOCC4)nc(N4C[C@@H](C)O[C@@H](C)C4)nc3n2)cc1CO
kinase still bound, per cent of control (ADCK4 (human)): 87%
kinase still bound, per cent of control [1]: 82%
kinase still bound, per cent of control (RPS6KB1 (human)): 100%
kinase still bound, per cent of control (PI4KB (human)): 100%
kinase still bound, per cent of control (TSSK1B (human)): 91%
kinase still bound, per cent of control (PIK3C2G (human)): 43%
per cent of control (CSNK1D (human)): 79%
kinase still bound, per cent of control (PTK2 (human)): 95%
kinase still bound, per cent of control (NTRK2 (human)): 73%
kinase still bound, per cent of control [2]: 2%
kinase still bound, per cent of control (TYRO3 (human)): 100%
kinase still bound, per cent of control [6]: 100%
kinase still bound, per cent of control (RPS6KA2 KD2 (human)): 94%
kinase still bound, per cent of control (PRKCD (human)): 100%
per cent of control (CDK17 (human)): 100%
kinase still bound, per cent of control (RAF1 (human)): 100%
kinase still bound, per cent of control (AKT3 (human)): 97%
kinase still bound, per cent of control [3]: 2.8%
kinase still bound, per cent of control (PIK3C2B (human)): 85%
kinase still bound, per cent of control (FLT1 (human)): 92%
kinase still bound, per cent of control (NEK1 (human)): 100%
kinase still bound, per cent of control (CHEK1 (human)): 99%
kinase still bound, per cent of control [4]: 94%
kinase still bound, per cent of control (MAPK6 (human)): 84%
kinase still bound, per cent of control (MAP3K2 (human)): 78%
kinase still bound, per cent of control (YSK4 (human)): 100%
kinase still bound, per cent of control (BMP2K (human)): 98%
kinase still bound, per cent of control (MAPK1 (human)): 100%
kinase still bound, per cent of control [5]: 80%
kinase still bound, per cent of control (CPK1 (P.falciparum)): 100%
kinase still bound, per cent of control (CRK2 (P.falciparum)): 90%
kinase still bound, per cent of control (CAMK1D (human)): 89%
kinase still bound, per cent of control (PRKCI (human)): 79%
kinase still bound, per cent of control (BTK (human)): 100%
kinase still bound, per cent of control (EPHA8 (human)): 80%
kinase still bound, per cent of control (ABL2 (human)): 95%
per cent of control (CDK5 (human)): 100%
kinase still bound, per cent of control (PDGFRB (human)): 95%
kinase still bound, per cent of control (CSNK2A1 (human)): 96%
kinase still bound, per cent of control (TRPM6 (human)): 50%
kinase still bound, per cent of control (IRAK1 (human)): 100%

CCC(=O)N1CCN(c2ccc(-n3c(=O)ccc4cnc5ccc(-c6cnc7ccccc7c6)cc5c43)cc2C(F)(F)F)CC1
kinase still bound, per cent of control (ADCK4 (human)): 15%
kinase still bound, per cent of control [1]: 80%
kinase still bound, per cent of control (PI4KB (human)): 96%
kinase still bound, per cent of control (TSSK1B (human)): 100%
kinase still bound, per cent of control (PIK3C2G (human)): 11%
per cent of control (CSNK1D (human)): 4.3%
kinase still bound, per cent of control (PTK2 (human)): 14%
kinase still bound, per cent of control (NTRK2 (human)): 81%
kinase still bound, per cent of control [2]: 0.6%
kinase still bound, per cent of control (TYRO3 (human)): 31%
kinase still bound, per cent of control [6]: 79%
kinase still bound, per cent of control (RPS6KA2 KD2 (human)): 85%
kinase still bound, per cent of control (PRKCD (human)): 82%
per cent of control (CDK17 (human)): 97%
kinase still bound, per cent of control (RAF1 (human)): 48%
kinase still bound, per cent of control (AKT3 (human)): 77%
kinase still bound, per cent of control [3]: 1%
kinase still bound, per cent of control (PIK3C2B (human)): 25%
kinase still bound, per cent of control (FLT1 (human)): 79%
kinase still bound, per cent of control (NEK1 (human)): 89%
kinase still bound, per cent of control (MAPK6 (human)): 1.8%
kinase still bound, per cent of control (MAP3K2 (human)): 62%
kinase still bound, per cent of control (YSK4 (human)): 38%
kinase still bound, per cent of control (BMP2K (human)): 100%
kinase still bound, per cent of control (MAPK1 (human)): 100%
kinase still bound, per cent of control (CPK1 (P.falciparum)): 36%
kinase still bound, per cent of control (CRK2 (P.falciparum)): 97%
kinase still bound, per cent of control (CAMK1D (human)): 88%
kinase still bound, per cent of control (PRKCI (human)): 85%
kinase still bound, per cent of control (EPHA8 (human)): 71%
kinase still bound, per cent of control (ABL2 (human)): 99%
per cent of control (CDK5 (human)): 100%
kinase still bound, per cent of control (PDGFRB (human)): 24%
kinase still bound, per cent of control (CSNK2A1 (human)): 94%
kinase still bound, per cent of control (TRPM6 (human)): 100%
kinase still bound, per cent of control (IRAK1 (human)): 100%
